Reference: ChEMBL document CHEMBL1146835, “Aspermytin A: a new neurotrophic polyketide isolated from a marine-derived fungus of the genus Aspergillus” (2004)

System: PC-12
Experiment: Neurotrophic effect on rat pheochromocytoma (PC-12) cells was expressed as percent cells with neurites after 2 days treatment with 50 uM of compound
Type: functional

C[C@H]1CCC2[C@@H](C=C[C@@](C)(O)[C@]2(C)C(=O)CCO)C1 (stereo partly specified)
Cells: >50%
